Laboratory results from US8501791B2, “1,2,4-thiadiazolium derivatives as melanocortin receptor modulators” (Ortho-McNeil Pharamaceutical, Inc., priority 2001, dated 2013).
Where “and” joins values, the source holds several entries; their conditions need not be identical. Identical values can stand only once.

Experiments:
[1] = molecular target: T1, melanocortin MC-4 receptor (Homo sapiens, UniProt P32245); assay: Melanocortin MC-4 Receptor Binding Assay (SPA); settings: 125I-NDP-melanocyte stimulating hormone
T1 construct: purchased Receptor Biology Inc
Method: Radioactive ligand ^125I-NDP-melanocyte stimulating hormone [NEN, 2000 Ci/mmol] was added to each well (48.54 per well, […] final concentration). The plate was then sealed and let stand for 16 hr at 25° C. NDP-Melanocyte stimulating hormone peptide and α-melanocyte stimulating hormone peptide [purchased from Palomar Research Inc, 1 μM] were used as reference inhibitor compounds to define non-specific binding (N). Total binding (T) was defined using 30% DMSO-50 mM HEPES, pH 7.4 buffer. Bound radioactivity for each well (Y), measured at counts per minute (cpm) was measured in a TopCount [Packard, Calif.]. Percent inhibition was calculated as: […]

[2] = tested on: human sebocytes; assay: Sebaceous lipid synthesis by sebaceous cells (14C acetate, HPTLC); type: cell-based; settings: seven day treatment
Method: Semiconfluent cultures of 3T3 mouse fibroblasts (Swiss Albino mouse, ATCC CCL-92) were treated with mitomycin C (4 μg/ml) for 3 hours, trypsinized and seeded at a density of 2.5×10^5/9.5 cm^2 tissue culture plate in Dulbeccos Minimal Essential Medium (DMEM) containing 10% Colorado Calf Serum, PNC (100 U/ml), STM (100 μg/ml), L glutamine (0.3 mg/ml), sodium pyruvate (1 mM) and nonessential amino acids (100 μM). The cells were incubated at 37° C. for 24 hours prior to their use as a feeder layer for sebocytes.
Human sebocytes were isolated from Dermatome shavings of postoperative pieces of human skin at 0.4-0.8 mm depths (this part of the skin was previously shown to be enriched in sebaceous glands). […] Cells so obtained were filtered through nylon mesh (100μ pore size), centrifuged at 750 RPM, re-suspended in GM and counted. […]
Hormones, mixture of hormones i.e. bovine pituitary extract or compounds to be tested were added to the culture at the beginning of phase III. […] This method relies on visualization of neutral lipids by Nile red and quantitation by reading of fluorescence at 535 nm excitation, 580 nm emission using a plate reader. The lipid synthesis was evaluated by radioactive labeling using ^14C acetate and quantified by Bio Rad Phosphoimager (Molecular Imager, FX) using 4.1 Software. […]

[3] = tested on: human skin transplanted to the SCID mouse; assay: Human skin-SCID mouse chimera model, sebum production; type: in vivo, SCID mouse with human skin graft
From the text: Severe combined immunodeficient mice (SCID) provide an invaluable model for skin xenografting. These animals are devoid of both T and B cell immunity. Human skin grafts in SCID mice retain human cellular tissue components including skin immune cells, i.e. Langerhans cells, macrophages and lymphocytes and also part of the engrafted endothelium (Kaufman R., et al., Exp. Dermatol. 1993:2:209-216, 1993). These properties allow for the study of physiological and/or pathological responses of human skin cells to a test compound.
C.B-17 scid/scid mice (Taconic, Germantown, N.Y.) were used for grafting at 5-6 weeks of age. Full thickness human facial skin was shaved to ˜0.4 mm using a Forman Dermatome. The skin shavings were washed 3 times in antibiotics and antimycotics (penicillin, streptomycin, fungizone) (Life technologies) in Dulbecco's Modified Eagle Medium (DMEM, Life Technologies). Elliptical skin ˜2.0-2.5×1.0-1.5 was grafted onto the prepared graft bed and sutured using 4.0 silk. During surgical procedures the mice were anaesthetized using a mixture of Ketaset (0.16 mg/g body weight) and Rompun (8.0 μg/g body weight).
It is well accepted that the wound healing process of the transplanted skin in the SCID mouse takes one month, at which time the human skin can be used for experimental purposes. […] Maximum size of the glands was observed 3 month post transplantation. The glands retained their capability to produce human specific sebum and the glandular tissue expressed human specific markers including MC5-R. Since glands reached their maximum size at 2-3 month post transplantation the effects of inhibitors of sebum secretion was tested at this point.
Mice at 2-3 month post transplantation with human facial skin were used for the studies. The graft area was treated with the test compound at the desired concentration(s) dissolved in polyethylene glycol-ethanol (20 μl/2 cm^2). Controls were treated with vehicle alone. The test compounds were applied daily, excluding weekends. Sebum secretion was determined using Sebutape at 15 days and 30 days following treatment.
The termination of the experiment was determined by preliminary clinical evaluation of sebum production using SEBUTAPE. At this time human skin grafts were excised and representative samples were collected for histological evaluation. More particularly, 2 mm punch biopsies were prepared and used for evaluation of lipid synthesis and total lipid accumulation in the treated tissues.
The collected 2 mm punch biopsies were placed individually into 96 well plates in Krebs buffer and labeled with 10 μCi of ^14C acetate for 3 hours. Following this labeling period the samples were washed in medium and 5 biopsies pooled, weighed, and used for lipid extraction. The lipid extraction and analysis by HPTLC was the same as described for tissue culture derived cells. […]

[4] = tested on: Food-Deprived Rats (MC-4); assay: Rodent feeding: food intake in food-deprived rats (MC-4); type: in vivo, rat; settings: 10 mg/kg, ip
Method: Male Long-Evans rats (180-200 grams) were housed individually and maintained on a once-a-day feeding schedule (i.e. 10 a.m. until 4 p.m.) for five days following quarantine to allow the animals to acclimate to feeding on powdered chow (#5002 PMI Certified Rodent Meal) during the allotted time. The chow was made available in an open jar, anchored in the cage by a wire, with a metal follower covering the food to minimize spillage. Water was available ad-libitum.
Animals were fasted for 18 hours prior to testing. At the end of the fasting period, animals were administered either a test compound or vehicle. Vehicle and test compound were administered either orally (5 mL/kg) 60 minutes prior to the experiment, subcutaneously (1 mL/kg) 30 minutes prior to the experiment, or intraperitoneally (1 mL/kg) 30 minutes prior to the experiment. Test compounds were administered orally as a suspension in aqueous 0.5% methylcellulose-0.4% Tween 80, or intraperitoneally as a solution or suspension in PEG 200; compound concentrations typically ranged from 1 mg/kg to 100 mg/kg, preferably from 10-30 mg/kg. Food intake was measured at 2, 4, and 6 hours after administration by weighing the special jar containing the food before the experiment and at the specified times. Upon completion of the experiment, all animals were given a one-week washout period before re-testing.

[5] = tested on: facial nerve compression, whisker movement; assay: In vivo facial nerve compression model; design: species or system rat; settings: positive control s.c., 70 ug/each 48 hr
From the text: The ability of test compound to provide neuro-protective or neuro-regenerative effects was investigated in a facial nerve compression model. Facial nerve motor axons arise exclusively from neurons within the pons in a well-defined nucleus. Facial nerve compression results in retrograde reactions proximal to the lesion site and Wallerian degeneration at its distal part, which causes diminished whisker movement on the lesioned side. […] The right facial nerve was exposed and compressed with forceps for 30 sec at its exit from the stylomastoid foramen. The left facial nerve was sham-operated and served as an internal control. […] After recovery from anesthesia, the rats were randomly divided into groups for dosing with vehicle, αMSH or test compound, with 6 animals per group. αMSH (s.c., 70 ug/each 48 hr) was used as a positive control. Test compounds were dosed p.o. at 20 mg/kg bid for 14 days. Restoration of whisker movement was monitored daily after the operation using two criteria: (1) frequency of whisker movement on the lesioned side relative to the opposite side (sham-operated) which served as the baseline control (2) semi-quantitative measurements (0 to 4+) on strength of the whisker muscles, characterized based on observation of the percentage of moved whiskers, muscle tone of whisker muscles, and the position of the nose. For all observations, the experimental design was blind to the behavioral observer. […] The recovery rate of the whisker movement was expressed as percentage of its own internal control (sham-operated), as listed in Table 8.

[6] = tested on: rabbit adipocytes; settings: read-out: EC50 lipolytic activity; cited from earlier work
[7] = 30 Day Treatment, topical 0.01%
[8] = 30 Day Treatment, topical 0.05%
[9] = human sebaceous lipids, 11 Day Treatment, topical 0.01%
[10] = human sebaceous lipids, 11 Day Treatment, topical 0.1%
[11] = human sebaceous lipids, 11 Day Treatment, topical 0.5%

T1 sequence (P32245 whole entry): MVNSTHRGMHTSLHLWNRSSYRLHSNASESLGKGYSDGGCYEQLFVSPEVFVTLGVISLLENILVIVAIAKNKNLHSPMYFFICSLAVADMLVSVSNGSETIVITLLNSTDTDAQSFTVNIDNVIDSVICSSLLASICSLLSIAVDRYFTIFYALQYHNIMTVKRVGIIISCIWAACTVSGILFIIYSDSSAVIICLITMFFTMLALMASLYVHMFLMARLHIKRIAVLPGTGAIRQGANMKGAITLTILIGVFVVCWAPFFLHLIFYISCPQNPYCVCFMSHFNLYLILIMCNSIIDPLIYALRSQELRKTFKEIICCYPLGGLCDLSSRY

COc1ccccc1-[n+]1sc(Nc2ccc(Cl)cc2)nc1-c1ccc(C)cc1 [Compound 70]
IC50 [1]: 566 nM

COc1ccccc1-c1nc(Nc2ccccc2)s[n+]1-c1ccccc1OC.[Br-] [Compound 74, 2-(2-methoxyphenyl)-3-(2-methoxyphenyl)-5-phenylamino-[1,2,4]-thiadiazol-2-ium]
lipid synthesis, radioactively labeled lipids separated by HPTLC [2]: inhibition of squalene, cholesterol esters and wax esters
lipid granules in sebocyte cultures, visual ([2]; stained cell cultures): complete disappearance of lipid granules
% Inh @ 0.01% Cholesterol Ester, Lipid Accumulation [3, 7]: 44%
% Inh @ 0.01% Cholesterol, Lipid Accumulation [3, 7]: 33%
% Inh @ 0.01% Cholesterol, Sebaceous Lipid Synthesis [3, 7]: 33%
% Inh @ 0.01% Squaline, Lipid Accumulation [3, 7]: 82%
% Inh @ 0.01% Squaline, Sebaceous Lipid Synthesis [3, 7]: 80%
% Inh @ 0.01% Triglycerides, Lipid Accumulation [3, 7]: 75%
% Inh @ 0.01% Triglycerides, Sebaceous Lipid Synthesis [3, 7]: 75%
% Inh @ 0.01% Wax Esters, Lipid Accumulation [3, 7]: 86%
% Inh @ 0.01% Wax Esters, Sebaceous Lipid Synthesis [3, 7]: 86%
% Inh @ 0.05% Cholesterol Ester, Lipid Accumulation [3, 8]: 21%
% Inh @ 0.05% Cholesterol, Lipid Accumulation [3, 8]: 82%
% Inh @ 0.05% Cholesterol, Sebaceous Lipid Synthesis [3, 8]: 82%
% Inh @ 0.05% Squaline, Lipid Accumulation [3, 8]: 73%
% Inh @ 0.05% Squaline, Sebaceous Lipid Synthesis [3, 8]: 90%
% Inh @ 0.05% Triglycerides, Lipid Accumulation [3, 8]: 90%
% Inh @ 0.05% Triglycerides, Sebaceous Lipid Synthesis [3, 8]: 90%
% Inh @ 0.05% Wax Esters, Lipid Accumulation [3, 8]: 93%
% Inh @ 0.05% Wax Esters, Sebaceous Lipid Synthesis [3, 8]: 93%
total sebaceous lipid accumulation and de novo synthesis of sebaceous lipids ([3]; 30 days of topical treatment with 0.05% and 0.01% solution): significantly decreased
% Inh @ 0.01% Squalene [3, 9]: 0%
% Inh @ 0.01% Triglycerides [3, 9]: 0%
% Inh @ 0.01% W/E [3, 9]: 25%
% Inh @ 0.1% Squalene [3, 10]: 70%
% Inh @ 0.1% Triglycerides [3, 10]: 50%
% Inh @ 0.1% W/E [3, 10]: 80%
% Inh @ 0.5% Squalene [3, 11]: 0%
% Inh @ 0.5% Triglycerides [3, 11]: 0%
% Inh @ 0.5% W/E [3, 11]: 10%

c1ccc(CNc2nc(-c3ccccc3)[n+](-c3ccccc3)s2)cc1 [Compound 84]
Change in Food Intake 2-6 hrs (%) [4]: −24.5% and −17.8%

α-MSH
Percent Recovery of whisker movement D9 ([5]; D9): 2.0 ± 2.8%
Percent Recovery of whisker movement D10 ([5]; D10): 24.6 ± 15.8%
Percent Recovery of whisker movement D11 ([5]; D11): 60.1 ± 19.3%
Percent Recovery of whisker movement D12 ([5]; D12): 93.8 ± 14.0%
Percent Recovery of whisker movement D13 ([5]; D13): 98.1 ± 5.3%
Percent Recovery of whisker movement D14 ([5]; D14): 100 ± 0.0%
EC50 [6]: 3.7 nM
